Laboratory results from patent publication US20250163038A1, “CBL-B MODULATORS AND USES THEREOF” (Nimbus Clio, Inc., priority 2021, published 2025).

Legend:
[1] = molecular target: Recombinant human Cbl-b (aa 36-427) (Homo sapiens, UniProt Q13191); test: Cbl-b Biochemical Assay (TR-FRET); conditions: read-out: TR-FRET hCbl-b IC50
[2] = system: Jurkat (clone E6-1) cells with NFAT luciferase reporter; test: Jurkat reporter assay (NFAT Luciferase); assay type: cell-based; conditions: Homo sapiens; Jurkat NFAT luciferase reporter cells, anti-CD3 stimulation, 6 hr; read-out: Jurkat NFAT EC50
[3] = molecular target: T1, Recombinant human c-Cbl (aa 47-435) (Homo sapiens, UniProt P22681); test: c-Cbl Biochemical Assay (TR-FRET); conditions: hc-Cbl Biochemical Assay (TR-FRET); read-out: TR-FRET hcCbl IC50
T1 sequence (P22681 47-435): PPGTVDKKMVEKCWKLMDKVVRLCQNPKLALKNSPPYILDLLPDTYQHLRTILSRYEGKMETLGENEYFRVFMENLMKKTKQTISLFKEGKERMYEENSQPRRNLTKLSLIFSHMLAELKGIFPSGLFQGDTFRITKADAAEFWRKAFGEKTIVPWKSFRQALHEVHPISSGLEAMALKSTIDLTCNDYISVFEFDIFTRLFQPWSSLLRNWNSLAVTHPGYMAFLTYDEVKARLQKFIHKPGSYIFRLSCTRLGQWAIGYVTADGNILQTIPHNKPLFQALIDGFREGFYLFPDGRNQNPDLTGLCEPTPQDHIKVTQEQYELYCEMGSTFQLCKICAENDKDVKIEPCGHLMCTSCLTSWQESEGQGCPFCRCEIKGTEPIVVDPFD

Chain of Recombinant human Cbl-b (aa 36-427) (Q13191 36-427): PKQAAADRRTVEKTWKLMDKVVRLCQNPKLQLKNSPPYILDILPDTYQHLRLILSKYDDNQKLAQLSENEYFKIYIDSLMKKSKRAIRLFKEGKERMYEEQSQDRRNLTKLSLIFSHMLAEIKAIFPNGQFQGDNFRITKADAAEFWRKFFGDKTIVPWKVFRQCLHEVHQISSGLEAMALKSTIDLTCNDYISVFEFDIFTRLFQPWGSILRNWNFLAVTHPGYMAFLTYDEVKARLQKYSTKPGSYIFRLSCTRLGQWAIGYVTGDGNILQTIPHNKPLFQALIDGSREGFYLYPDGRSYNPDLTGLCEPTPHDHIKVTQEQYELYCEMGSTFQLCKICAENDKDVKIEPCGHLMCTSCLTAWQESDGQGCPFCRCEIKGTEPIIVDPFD

Row | Compound | IC50 [1] [nM] | EC50 [2] [nM] | IC50 [3] [nM]
1 | Cn1cnnc1-c1cc(F)ccc1-c1cccc(-c2nc3cc(CNCC4CC4)cc(C(F)(F)F)c3o2)c1 [FB-2, 1-Cyclopropyl-N-((2-(4′-fluoro-2′-(4-methyl-4H-1,2,4-triazol-3-yl)-[1,1′-biphenyl]-3-yl)-7-(trifluoromethyl)benzo[d]oxazol-5-yl)methyl)methanamine] | < 200 | < 200 | < 200
2 | COCC1(CNCc2cc(C(F)(F)F)c3oc(-c4cccc(-c5ccc(F)cc5-c5nncn5C)c4)nc3c2)CCCC1 [FC-2, 1-(2-(4′-Fluoro-2′-(4-methyl-4H-1,2,4-triazol-3-yl)-[1,1′-biphenyl]-3-yl)-7-(trifluoromethyl)benzo[d]oxazol-5-yl)-N-((1-(methoxymethyl)cyclopentyl)methyl)methanamine] | < 200 | 200 to 1000 | < 200
3 | Cn1cnnc1-c1cc(F)ccc1-c1cccc(-c2nc3cc(CNCCF)cc(C(F)(F)F)c3o2)c1 [FD-2, 2-fluoro-N-((2-(4′-fluoro-2′-(4-methyl-4H-1,2,4-triazol-3-yl)-[1,1′-biphenyl]-3-yl)-7-(trifluoromethyl)benzo[d]oxazol-5-yl)methyl)ethan-1-amine] | < 200 | 200 to 1000 | < 200
4 | Cc1cc(CO)cc2nc(-c3cccc(-c4ccc(F)cc4-c4nncn4C)c3)oc12 [FE-3, (2-(4′-Fluoro-2′-(4-methyl-4H-1,2,4-triazol-3-yl)-[1,1′-biphenyl]-3-yl)-7-methylbenzo[d]oxazol-5-yl)methanol] | 1000 to 10000 | 10000 to 50000 | 1000 to 10000
5 | Cn1cnnc1-c1cc(F)ccc1-c1cccc(-c2nc3cc(CO)cc(C(C)(F)F)c3o2)c1 [FF-6, (7-(1,1-Difluoroethyl)-2-(4′-fluoro-2′-(4-methyl-4H-1,2,4-triazol-3-yl)-[1,1′-biphenyl]-3-yl)benzo[d]oxazol-5-yl)methanol] | < 200 | 1000 to 10000 | 200 to 1000
6 | Cc1cc(CN[C@@H]2CCC[C@@H]2O)cc2nc(-c3cccc(-c4ccc(F)cc4-c4nncn4C)c3)oc12 [FG-2, (1S,2R)-2-(((2-(4′-Fluoro-2′-(4-methyl-4H-1,2,4-triazol-3-yl)-[1,1′-biphenyl]-3-yl)-7-methylbenzo[d]oxazol-5-yl)methyl)amino)cyclopentan-1-ol] | < 200 | < 200 | < 200
7 | COc1cccc2oc(-c3cccc(-c4ccc(F)cc4-c4nncn4C)c3)nc12 [FH-2, 2-(4′-Fluoro-2′-(4-methyl-4H-1,2,4-triazol-3-yl)-[1,1′-biphenyl]-3-yl)-4-methoxybenzo[d]oxazole] | 1000 to 10000 | 10000 to 50000 | 1000 to 10000
8 | CCOCCNCc1cc(C(F)(F)F)c2oc(-c3cccc(-c4ccc(F)cc4-c4nncn4C)c3)nc2c1 [FI-2, 2-Ethoxy-N-((2-(4′-fluoro-2′-(4-methyl-4H-1,2,4-triazol-3-yl)-[1,1′-biphenyl]-3-yl)-7-(trifluoromethyl)benzo[d]oxazol-5-yl)methyl)ethan-1-amine] | < 200 | < 200 | < 200
9 | Cn1cnnc1-c1cc(F)ccc1-c1cccc(-c2nc3cc(CN[C@@H]4CCC[C@@H]4O)cc(C(C)(F)F)c3o2)c1 [FJ-2, (1S,2R)-2-(((7-(1,1-Difluoroethyl)-2-(4′-fluoro-2′-(4-methyl-4H-1,2,4-triazol-3-yl)-[1,1′-biphenyl]-3-yl)benzo[d]oxazol-5-yl)methyl)amino)cyclopentan-1-ol] | < 200 | < 200 | < 200
10 | CCCNCc1cc(C(F)(F)F)c2oc(-c3cccc(-c4ccc(F)cc4-c4nncn4C)c3)nc2c1 [FL-2, N-((2-(4′-Fluoro-2′-(4-methyl-4H-1,2,4-triazol-3-yl)-[1,1′-biphenyl]-3-yl)-7-(trifluoromethyl)benzo[d]oxazol-5-yl)methyl)propan-1-amine] | < 200 | < 200 | < 200
11 | Cn1cnnc1-c1cc(F)ccc1-c1cccc(-c2nc3cc(CNC4CC5(CCC5)C4)cc(C(F)(F)F)c3o2)c1 [FM-2, N-((2-(4′-Fluoro-2′-(4-methyl-4H-1,2,4-triazol-3-yl)-[1,1′-biphenyl]-3-yl)-7-(trifluoromethyl)benzo[d]oxazol-5-yl)methyl)spiro[3.3]heptan-2-amine] | < 200 | < 200 | < 200
12 | COc1cc(CNCC2CCCC2)cc2nc(-c3cccc(-c4ccc(F)cc4-c4nncn4C)c3)oc12 [FN-1, 1-Cyclopentyl-N-((2-(4′-fluoro-2′-(4-methyl-4H-1,2,4-triazol-3-yl)-[1,1′-biphenyl]-3-yl)-7-methoxybenzo[d]oxazol-5-yl)methyl)methanamine] | < 200 | < 200 | < 200
13 | CC(C)CCNCc1cc(C(F)(F)F)c2oc(-c3cccc(-c4ccc(F)cc4-c4nncn4C)c3)nc2c1 [FO-2, N-((2-(4′-Fluoro-2′-(4-methyl-4H-1,2,4-triazol-3-yl)-[1,1′-biphenyl]-3-yl)-7-(trifluoromethyl)benzo[d]oxazol-5-yl)methyl)-3-methylbutan-1-amine] | < 200 | < 200 | < 200

Further lines, results first:

Row | IC50 [1] [nM] | EC50 [2] [nM] | IC50 [3] [nM] | Compound
14 | 200 to 1000 | 1000 to 10000 | 200 to 1000 | COc1cc(CN[C@@H]2CCC[C@@H]2OC)cc2nc(-c3cccc(-c4ccc(F)cc4-c4nncn4C)c3)oc12 [FQ-1, (1R,2S)—N-((2-(4′-Fluoro-2′-(4-methyl-4H-1,2,4-triazol-3-yl)-[1,1′-biphenyl]-3-yl)-7-methoxybenzo[d]oxazol-5-yl)methyl)-2-methoxycyclopentan-1-amine]
15 | < 200 | 200 to 1000 | 200 to 1000 | COc1cc(CNC[C@H]2CCCO2)cc2nc(-c3cccc(-c4ccc(F)cc4-c4nncn4C)c3)oc12 [FR-1, (R)-1-(2-(4′-Fluoro-2′-(4-methyl-4H-1,2,4-triazol-3-yl)-[1,1′-biphenyl]-3-yl)-7-methoxybenzo[d]oxazol-5-yl)-N-((tetrahydrofuran-2-yl)methyl)methanamine]
16 | < 200 | < 200 | < 200 | COc1cc(CNC[C@@H]2CCCO2)cc2nc(-c3cccc(-c4ccc(F)cc4-c4nncn4C)c3)oc12 [FS-2, (S)-1-(2-(4′-Fluoro-2′-(4-methyl-4H-1,2,4-triazol-3-yl)-[1,1′-biphenyl]-3-yl)-7-methoxybenzo[d]oxazol-5-yl)-N-((tetrahydrofuran-2-yl)methyl)methanamine]
17 | < 200 | < 200 | < 200 | Cn1cnnc1-c1cc(F)ccc1-c1cccc(-c2nc3cc(CNCC4CCC4)cc(C4CC4)c3o2)c1 [FT-1, 1-Cyclobutyl-N-((7-cyclopropyl-2-(4′-fluoro-2′-(4-methyl-4H-1,2,4-triazol-3-yl)-[1,1′-biphenyl]-3-yl)benzo[d]oxazol-5-yl)methyl)methanamine]
18 | < 200 | 200 to 1000 | < 200 | COc1cc(CNCC2CC2)cc2nc(-c3cccc(-c4ccc(F)cc4-c4nncn4C)c3)oc12 [FU-1, 1-Cyclopropyl-N-((2-(4′-fluoro-2′-(4-methyl-4H-1,2,4-triazol-3-yl)-[1,1′-biphenyl]-3-yl)-7-methoxybenzo[d]oxazol-5-yl)methyl)methanamine]
19 | < 200 | < 200 | < 200 | CN(Cc1cc(C(F)(F)F)c2oc(-c3cccc(-c4ccc(F)cc4-c4nncn4C)c3)nc2c1)[C@@H]1CCC[C@@H]1O [FW-3, (1S,2R)-2-(((2-(4′-Fluoro-2′-(4-methyl-4H-1,2,4-triazol-3-yl)-[1,1′-biphenyl]-3-yl)-7-(trifluoromethyl)benzo[d]oxazol-5-yl)methyl)(methyl)amino)cyclopentan-1-ol]
20 | < 200 | < 200 | < 200 | CC(C)CNCc1cc(C(F)(F)F)c2oc(-c3cccc(-c4ccc(F)cc4-c4nncn4C)c3)nc2c1 [FX-2, N-((2-(4′-Fluoro-2′-(4-methyl-4H-1,2,4-triazol-3-yl)-[1,1′-biphenyl]-3-yl)-7-(trifluoromethyl)benzo[d]oxazol-5-yl)methyl)-2-methylpropan-1-amine]
21 | < 200 | 1000 to 10000 | 200 to 1000 | COCCCNCc1cc(OC)c2oc(-c3cccc(-c4ccc(F)cc4-c4nncn4C)c3)nc2c1 [FY-1, N-((2-(4′-Fluoro-2′-(4-methyl-4H-1,2,4-triazol-3-yl)-[1,1′-biphenyl]-3-yl)-7-methoxybenzo[d]oxazol-5-yl)methyl)-3-methoxypropan-1-amine]
22 | 1000 to 10000 | 10000 to 50000 | 10000 to 50000 | Cn1cnnc1-c1cc(F)ccc1-c1cccc(-c2cn3cc(CO)ccc3n2)c1 [FZ-5, (2-(4′-Fluoro-2′-(4-methyl-4H-1,2,4-triazol-3-yl)-[1,1′-biphenyl]-3-yl)imidazo[1,2-a]pyridin-6-yl)methanol]
23 | < 200 | < 200 | < 200 | COc1cc(CNCC2(O)CCC2)cc2nc(-c3cccc(-c4ccc(F)cc4-c4nncn4C)c3)oc12 [GA-1, 1-((((2-(4′-Fluoro-2′-(4-methyl-4H-1,2,4-triazol-3-yl)-[1,1′-biphenyl]-3-yl)-7-methoxybenzo[d]oxazol-5-yl)methyl)amino)methyl)cyclobutan-1-ol]
